Data on 18 molecules can be found in patent US7517874B2 (priority 2007, dated 2009).

One experiment concerns the target T1, rat CB2 receptor (rCB2) (Rattus norvegicus, UniProt Q9QZN9).
T1 sequence (Q9QZN9 1-360): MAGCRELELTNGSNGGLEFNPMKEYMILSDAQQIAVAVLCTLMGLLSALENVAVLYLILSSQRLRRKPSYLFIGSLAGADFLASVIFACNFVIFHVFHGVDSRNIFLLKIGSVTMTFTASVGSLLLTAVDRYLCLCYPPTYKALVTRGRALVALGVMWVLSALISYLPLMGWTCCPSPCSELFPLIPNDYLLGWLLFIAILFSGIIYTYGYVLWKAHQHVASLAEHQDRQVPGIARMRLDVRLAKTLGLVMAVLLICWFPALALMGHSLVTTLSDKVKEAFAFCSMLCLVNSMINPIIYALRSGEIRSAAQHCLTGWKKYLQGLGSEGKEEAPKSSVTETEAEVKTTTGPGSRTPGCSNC
As to the kind of experiment: cell-based. The experiment is classed as cell-based. Particulars: for +/− RCB2: agonist or inverse agonist at rCB2. The essentials:
(§1)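 Readout: LANCE TR-FRET cAMP, back-calculated from a concurrent standard curve and scaled between forskolin-only and forskolin + 1 μM CP55,940 wells. EC50 and intrinsic activity came from four-parameter fits.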

Experiment [1] deals with human CB1 receptor (hCB1) (Homo sapiens, UniProt P21554). As to the kind of experiment: cell-based. The experiment is classed as cell-based. Particulars: for +/− HCB1: agonist or inverse agonist at hCB1. The essentials: as §1
Chain of human CB1 receptor (hCB1) (P21554 whole entry): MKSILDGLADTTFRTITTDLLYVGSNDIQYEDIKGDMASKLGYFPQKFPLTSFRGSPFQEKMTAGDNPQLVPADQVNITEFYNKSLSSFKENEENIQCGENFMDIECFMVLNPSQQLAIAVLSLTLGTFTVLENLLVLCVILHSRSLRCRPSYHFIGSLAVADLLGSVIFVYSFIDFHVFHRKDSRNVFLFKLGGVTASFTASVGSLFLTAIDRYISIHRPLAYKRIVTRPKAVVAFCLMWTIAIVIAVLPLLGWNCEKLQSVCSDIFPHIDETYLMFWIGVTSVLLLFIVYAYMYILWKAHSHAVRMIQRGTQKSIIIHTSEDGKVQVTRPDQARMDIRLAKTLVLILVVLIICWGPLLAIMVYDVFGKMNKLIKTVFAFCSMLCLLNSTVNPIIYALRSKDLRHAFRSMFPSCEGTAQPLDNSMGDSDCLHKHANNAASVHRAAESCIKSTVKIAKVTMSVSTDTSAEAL

As for `CNC(=O)[C@@H](NC(=O)c1nc(-c2ccc(Cl)cc2F)n2c1CN(c1ncccn1)CCC2)C(C)(C)C` [Compound 482, 3-(4-chloro-2-fluorophenyl)-N-(3,3-dimethyl-1-(methylamino)-1-oxobutan-2-yl)-8-(pyrimidin-2-yl)-6,7,8,9-tetrahydro-5H-imidazo[1,5-a][1,4]diazepine-1-carboxamide], at rat CB2 receptor (rCB2), the “+/− RCB2” value was “+”. Further, the “+/− HCB1” value in experiment [1] is “+”.

Turning to `CNC(=O)[C@@H](NC(=O)c1nc(-c2ccccc2)n2c1CN(c1ncccn1)CCC2)C(C)(C)C` [Compound 483, (S)-N-(3,3-dimethyl-1-(methylamino)-1-oxobutan-2-yl)-3-phenyl-8-(pyrimidin-2-yl)-6,7,8,9-tetrahydro-5H-imidazo[1,5-a][1,4]diazepine-1-carboxamide], the “+/− RCB2” value on rat CB2 receptor (rCB2) is listed as “−”. In experiment [1], the “+/− HCB1” value is recorded as “+”.

As to `CCCCCc1nc(C(=O)N[C@H](C(=O)NC)C(C)(C)C)c2n1CCCN(C)C2` [Compound 484, (S)-N-(3,3-dimethyl-1-(methylamino)-1-oxobutan-2-yl)-8-methyl-3-pentyl-6,7,8,9-tetrahydro-5H-imidazo[1,5-a][1,4]diazepine-1-carboxamide], the EC50 (on rat CB2 receptor (rCB2); in experiment [1]) was over 10 µM throughout.

Turning to `CCCc1nc(C(=O)N[C@H](C(=O)NC)C(C)(C)C)c2n1CCCN(C)C2` [Compound 485, (S)-N-(3,3-dimethyl-1-(methylamino)-1-oxobutan-2-yl)-8-methyl-3-propyl-6,7,8,9-tetrahydro-5H-imidazo[1,5-a][1,4]diazepine-1-carboxamide], the “+/− RCB2” value at rat CB2 receptor (rCB2) was “+”. In addition, in experiment [1], the EC50 was over 10 µM.

For `CNC(=O)[C@@H](NC(=O)c1nc(CC(C)C)n2c1CN(C)CCC2)C(C)(C)C` [Compound 486, (S)-N-(3,3-dimethyl-1-(methylamino)-1-oxobutan-2-yl)-3-isobutyl-8-methyl-6,7,8,9-tetrahydro-5H-imidazo[1,5-a][1,4]diazepine-1-carboxamide], the “+/− RCB2” value on rat CB2 receptor (rCB2) was “+”. The same molecule had an EC50 in experiment [1] of over 10 µM.

With `CNC(=O)[C@@H](NC(=O)c1nc(C2CCCCC2)n2c1CN(C)CCC2)C(C)(C)C` [Compound 487, (S)-3-cyclohexyl-N-(3,3-dimethyl-1-(methylamino)-1-oxobutan-2-yl)-8-methyl-6,7,8,9-tetrahydro-5H-imidazo[1,5-a][1,4]diazepine-1-carboxamide], the “+/− RCB2” value on rat CB2 receptor (rCB2) is recorded as “+”. In experiment [1], this molecule yielded an EC50 of over 10 µM.

As for `CNC(=O)[C@@H](NC(=O)c1nc(CCC(C)(C)C)n2c1CN(C)CCC2)C(C)(C)C` [Compound 488, (S)-N-(3,3-dimethyl-1-(methylamino)-1-oxobutan-2-yl)-3-(3,3-dimethylbutyl)-8-methyl-6,7,8,9-tetrahydro-5H-imidazo[1,5-a][1,4]diazepine-1-carboxamide], the “+/− RCB2” value at rat CB2 receptor (rCB2) was “+”. In experiment [1], this molecule displayed an EC50 of over 10 µM.

With `CNC(=O)[C@@H](NC(=O)c1nc(CCCOC)n2c1CN(C)CCC2)C(C)(C)C` [Compound 489, (S)-N-(3,3-dimethyl-1-(methylamino)-1-oxobutan-2-yl)-3-(3-methoxypropyl)-8-methyl-6,7,8,9-tetrahydro-5H-imidazo[1,5-a][1,4]diazepine-1-carboxamide], the “+/− RCB2” value at rat CB2 receptor (rCB2) was “+”. The molecule also gave an EC50 in experiment [1] of over 10 µM.

As to `CNC(=O)[C@@H](NC(=O)c1nc(CCC2CC2)n2c1CN(C)CCC2)C(C)(C)C` [Compound 490, (S)-3-(2-cyclopropylethyl)-N-(3,3-dimethyl-1-(methylamino)-1-oxobutan-2-yl)-8-methyl-6,7,8,9-tetrahydro-5H-imidazo[1,5-a][1,4]diazepine-1-carboxamide], the “+/− RCB2” value on rat CB2 receptor (rCB2) is “+”. For the same molecule, in experiment [1], the concentration giving a half-maximal response (EC50) is over 10 µM.

Consider `CCCCCCc1nc(C(=O)N[C@H](C(=O)NC)C(C)(C)C)c2n1CCCN(C)C2` [Compound 491, (S)-N-(3,3-dimethyl-1-(methylamino)-1-oxobutan-2-yl)-3-hexyl-8-methyl-6,7,8,9-tetrahydro-5H-imidazo[1,5-a][1,4]diazepine-1-carboxamide], for which the “+/− RCB2” value on rat CB2 receptor (rCB2) is “+”. In experiment [1], the EC50 was over 10 µM.

Take `CCc1nc(C(=O)N[C@H](C(=O)NC)C(C)(C)C)c2n1CCCN(C)C2` [Compound 492, (S)-N-(3,3-dimethyl-1-(methylamino)-1-oxobutan-2-yl)-3-ethyl-8-methyl-6,7,8,9-tetrahydro-5H-imidazo[1,5-a][1,4]diazepine-1-carboxamide]: the “+/− RCB2” value on rat CB2 receptor (rCB2) is “−”. Also, in experiment [1], the EC50 is over 10 µM.

For `CNC(=O)[C@@H](NC(=O)c1nc(CCC2CCCCC2)n2c1CN(C)CCC2)C(C)(C)C` [Compound 493, (S)-3-(2-cyclohexylethyl)-N-(3,3-dimethyl-1-(methylamino)-1-oxobutan-2-yl)-8-methyl-6,7,8,9-tetrahydro-5H-imidazo[1,5-a][1,4]diazepine-1-carboxamide], the “+/− RCB2” value at rat CB2 receptor (rCB2) was “−”. This molecule gave an EC50 in experiment [1] of over 10 µM.

With `CNC(=O)[C@@H](NC(=O)c1nc(CCCC2CCCC2)n2c1CN(C)CCC2)C(C)(C)C` [Compound 494, (S)-3-(3-cyclopentylpropyl)-N-(3,3-dimethyl-1-(methylamino)-1-oxobutan-2-yl)-8-methyl-6,7,8,9-tetrahydro-5H-imidazo[1,5-a][1,4]diazepine-1-carboxamide], the “+/− RCB2” value at rat CB2 receptor (rCB2) is listed as “−”. The molecule further had an EC50 in experiment [1] of over 10 µM.

Regarding `CNC(=O)[C@@H](NC(=O)c1nc(CCc2ccsc2)n2c1CN(C)CCC2)C(C)(C)C` [Compound 495, (S)-N-(3,3-dimethyl-1-(methylamino)-1-oxobutan-2-yl)-8-methyl-3-(2-(thiophen-3-yl)ethyl)-6,7,8,9-tetrahydro-5H-imidazo[1,5-a][1,4]diazepine-1-carboxamide], the “+/− RCB2” value on rat CB2 receptor (rCB2) was “+”. Besides, the EC50 in experiment [1] was over 10 µM.

For `CNC(=O)[C@@H](NC(=O)c1nc(C(C)C)n2c1CN(C)CCC2)C(C)(C)C` [Compound 496, (S)-N-(3,3-dimethyl-1-(methylamino)-1-oxobutan-2-yl)-3-isopropyl-8-methyl-6,7,8,9-tetrahydro-5H-imidazo[1,5-a][1,4]diazepine-1-carboxamide], on rat CB2 receptor (rCB2), the “+/− RCB2” value is “+”. Moreover, the EC50 in experiment [1] is over 10 µM.

Regarding `CNC(=O)[C@@H](NC(=O)c1nc(C2CCCCCC2)n2c1CN(C)CCC2)C(C)(C)C` [Compound 498, (S)-3-cycloheptyl-N-(3,3-dimethyl-1-(methylamino)-1-oxobutan-2-yl)-8-methyl-6,7,8,9-tetrahydro-5H-imidazo[1,5-a][1,4]diazepine-1-carboxamide], the “+/− RCB2” value at rat CB2 receptor (rCB2) is reported as “+”. For the same molecule, the “+/− HCB1” value in experiment [1] is given as “+”.

For the molecule `CNC(=O)[C@@H](NC(=O)c1nc(C2CCC(C)CC2)n2c1CN(C)CCC2)C(C)(C)C` (stereo partly drawn) [Compound 499, (S)-N-(3,3-dimethyl-1-(methylamino)-1-oxobutan-2-yl)-8-methyl-3-(4-methylcyclohexyl)-6,7,8,9-tetrahydro-5H-imidazo[1,5-a][1,4]diazepine-1-carboxamide], the “+/− RCB2” value on rat CB2 receptor (rCB2) is “+”. Moreover, the EC50 in experiment [1] was over 10 µM.

As to `CNC(=O)[C@@H](NC(=O)c1nc(CCCN2CCOCC2)n2c1CN(C)CCC2)C(C)(C)C` [Compound 500, (S)-N-(3,3-dimethyl-1-(methylamino)-1-oxobutan-2-yl)-8-methyl-3-(3-morpholinopropyl)-6,7,8,9-tetrahydro-5H-imidazo[1,5-a][1,4]diazepine-1-carboxamide], the EC50 (on rat CB2 receptor (rCB2); in experiment [1]) was over 10 µM throughout.

The EC50 is the midpoint of the concentration-response curve.
